Experimental data reported in ChEMBL document CHEMBL1201862, “PubChem BioAssay data set” (2004).
Calls of active or inactive are those of the source.

Columns and labels:
[1] = target: T1, Microphthalmia-associated transcription factor (Homo sapiens, UniProt O75030); assay: reducers of TRPM1 reporter luminescence, concentration series – cell-based, SK-MEL-5, cherry-picked, set 3, MITF inhibitor project, dose response (AID 493073); format: functional;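 also: SK-MEL-5 melanoma cells with luciferase driven by the MITF target TRPM1 promoter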
T1 sequence (O75030 whole entry): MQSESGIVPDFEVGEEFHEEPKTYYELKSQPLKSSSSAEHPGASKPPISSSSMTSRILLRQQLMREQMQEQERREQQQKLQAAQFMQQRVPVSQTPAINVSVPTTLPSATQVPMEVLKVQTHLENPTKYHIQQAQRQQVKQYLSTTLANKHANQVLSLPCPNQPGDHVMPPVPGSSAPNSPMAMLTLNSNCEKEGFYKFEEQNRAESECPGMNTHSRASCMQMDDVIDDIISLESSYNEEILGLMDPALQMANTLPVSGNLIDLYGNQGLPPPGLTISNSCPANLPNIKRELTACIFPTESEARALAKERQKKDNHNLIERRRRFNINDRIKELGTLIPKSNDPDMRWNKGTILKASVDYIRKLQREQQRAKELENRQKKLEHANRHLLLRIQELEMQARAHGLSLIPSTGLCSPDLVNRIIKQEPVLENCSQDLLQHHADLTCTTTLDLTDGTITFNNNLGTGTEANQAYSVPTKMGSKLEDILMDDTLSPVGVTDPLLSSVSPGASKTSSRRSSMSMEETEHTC

Protein skinhead-1 = target: T2, Protein skinhead-1 (Caenorhabditis elegans, UniProt P34707); format: functional
T2 sequence (P34707 whole entry): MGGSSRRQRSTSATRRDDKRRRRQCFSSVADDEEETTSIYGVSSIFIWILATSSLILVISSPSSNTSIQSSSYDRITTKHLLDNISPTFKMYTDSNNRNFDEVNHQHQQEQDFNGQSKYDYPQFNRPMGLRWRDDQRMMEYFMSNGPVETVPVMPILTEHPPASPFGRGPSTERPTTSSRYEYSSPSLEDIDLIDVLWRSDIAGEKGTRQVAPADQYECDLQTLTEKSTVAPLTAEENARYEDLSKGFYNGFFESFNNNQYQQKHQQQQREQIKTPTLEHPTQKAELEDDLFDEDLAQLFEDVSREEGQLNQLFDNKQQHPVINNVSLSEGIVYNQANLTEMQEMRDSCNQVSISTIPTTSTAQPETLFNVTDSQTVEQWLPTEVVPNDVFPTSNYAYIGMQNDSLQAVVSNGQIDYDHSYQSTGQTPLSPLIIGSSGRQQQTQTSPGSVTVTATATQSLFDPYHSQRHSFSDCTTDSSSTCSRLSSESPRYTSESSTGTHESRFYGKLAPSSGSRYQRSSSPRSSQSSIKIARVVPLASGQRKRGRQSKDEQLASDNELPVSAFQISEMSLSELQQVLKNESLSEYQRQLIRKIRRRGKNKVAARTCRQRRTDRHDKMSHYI

[2] = target: Peroxisome proliferator-activated receptor gamma/Nuclear receptor coactivator 3 (Homo sapiens, UniProt P37231); assay: (§1) TR-FRET dose response biochemical High Throughput Screening assay for agonists of the steroid receptor coactivator 3 (SRC-3) recruitment by the peroxisome proliferator-activated receptor gamma (PPAR gamma): non-selective agonists. [Related pubchem assays: 1301 (Confirmation screen.), 1048 (Primary screen.)]; format: functional
[3] = target: Peroxisome proliferator-activated receptor gamma/Nuclear receptor coactivator 1 (Homo sapiens, UniProt P37231); assay: as §1, with “1 (SRC-1)” for “3 (SRC-3)”, “assays (depositor defined):AID1300, AID1808, AID504735, AID631]” for “assays: 1301 (Confirmation screen.), 1048 (Primary screen.)]”; format: protein assay
[4] = target: Peroxisome proliferator-activated receptor gamma/Nuclear receptor coactivator 2 (Homo sapiens, UniProt P37231); assay: TR-FRET dose response biochemical High Throughput Screening assay for agonists of the steroid receptor coactivator 2 (SRC-2) recruitment by the peroxisome proliferator-activated receptor gamma (PPAR gamma): non-selective agonists. [Related pubchem assays: 1297, 1032 ]; format: functional
Peroxisome proliferator-activated receptor gamma/Nuclear receptor coactivator 2, sequence (P37231 whole entry): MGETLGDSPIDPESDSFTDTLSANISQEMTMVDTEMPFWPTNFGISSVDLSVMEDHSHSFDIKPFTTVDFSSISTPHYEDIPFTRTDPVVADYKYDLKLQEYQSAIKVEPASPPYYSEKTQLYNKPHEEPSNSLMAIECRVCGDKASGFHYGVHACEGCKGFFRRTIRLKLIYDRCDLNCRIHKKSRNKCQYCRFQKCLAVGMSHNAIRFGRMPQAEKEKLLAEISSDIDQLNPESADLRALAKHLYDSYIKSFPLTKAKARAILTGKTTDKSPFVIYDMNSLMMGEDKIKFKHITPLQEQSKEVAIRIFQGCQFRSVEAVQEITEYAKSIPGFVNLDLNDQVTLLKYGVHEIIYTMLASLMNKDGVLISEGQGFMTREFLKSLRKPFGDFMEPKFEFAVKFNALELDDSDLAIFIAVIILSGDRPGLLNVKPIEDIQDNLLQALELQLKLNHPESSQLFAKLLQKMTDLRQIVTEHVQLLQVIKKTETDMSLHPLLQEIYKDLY
Peroxisome proliferator-activated receptor gamma/Nuclear receptor coactivator 2, sequence (Q15596 whole entry, further chain): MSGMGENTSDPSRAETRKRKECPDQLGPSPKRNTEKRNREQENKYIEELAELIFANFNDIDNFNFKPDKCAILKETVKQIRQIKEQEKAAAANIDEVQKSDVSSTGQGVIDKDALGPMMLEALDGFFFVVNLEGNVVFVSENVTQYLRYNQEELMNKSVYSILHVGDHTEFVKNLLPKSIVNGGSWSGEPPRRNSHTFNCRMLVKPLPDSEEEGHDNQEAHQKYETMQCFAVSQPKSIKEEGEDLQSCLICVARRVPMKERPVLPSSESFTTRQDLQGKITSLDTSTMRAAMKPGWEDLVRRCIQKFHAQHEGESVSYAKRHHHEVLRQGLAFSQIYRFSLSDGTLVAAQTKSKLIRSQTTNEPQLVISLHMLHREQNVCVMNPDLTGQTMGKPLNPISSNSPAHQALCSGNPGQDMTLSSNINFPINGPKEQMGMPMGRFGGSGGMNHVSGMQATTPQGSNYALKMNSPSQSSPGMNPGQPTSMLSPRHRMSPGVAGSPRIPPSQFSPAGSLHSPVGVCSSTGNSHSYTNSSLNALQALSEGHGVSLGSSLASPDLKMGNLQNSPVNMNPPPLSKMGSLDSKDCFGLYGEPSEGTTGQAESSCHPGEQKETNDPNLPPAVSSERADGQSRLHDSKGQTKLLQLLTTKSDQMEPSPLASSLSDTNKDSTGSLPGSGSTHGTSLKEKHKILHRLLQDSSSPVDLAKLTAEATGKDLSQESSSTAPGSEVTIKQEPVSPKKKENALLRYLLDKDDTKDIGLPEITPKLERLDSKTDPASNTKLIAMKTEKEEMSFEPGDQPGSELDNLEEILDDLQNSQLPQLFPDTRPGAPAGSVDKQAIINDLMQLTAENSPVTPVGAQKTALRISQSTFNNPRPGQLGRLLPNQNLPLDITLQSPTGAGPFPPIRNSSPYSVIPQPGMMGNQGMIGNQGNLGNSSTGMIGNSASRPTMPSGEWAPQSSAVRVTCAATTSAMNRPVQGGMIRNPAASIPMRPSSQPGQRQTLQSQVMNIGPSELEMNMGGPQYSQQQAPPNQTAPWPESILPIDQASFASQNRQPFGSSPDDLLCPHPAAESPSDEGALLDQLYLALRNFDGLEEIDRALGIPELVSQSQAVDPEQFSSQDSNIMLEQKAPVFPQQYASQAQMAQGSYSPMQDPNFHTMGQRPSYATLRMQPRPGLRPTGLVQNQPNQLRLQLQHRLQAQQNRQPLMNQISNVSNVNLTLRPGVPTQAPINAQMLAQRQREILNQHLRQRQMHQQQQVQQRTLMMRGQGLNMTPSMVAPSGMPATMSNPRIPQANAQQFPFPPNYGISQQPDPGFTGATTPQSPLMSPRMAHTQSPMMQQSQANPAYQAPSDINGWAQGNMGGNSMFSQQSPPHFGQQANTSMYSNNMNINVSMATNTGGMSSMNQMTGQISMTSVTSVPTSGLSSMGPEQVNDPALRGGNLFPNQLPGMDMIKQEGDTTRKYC

[5] = viability of uninfected HEp-2 cells – cell-based, HTS, cytotoxicity control for RSV inhibitor project, dose response (AID 2410); format: functional; conditions: human respiratory syncytial virus
Tumor necrosis factor = Tumor necrosis factor (Homo sapiens, UniProt P01375); assay: analog potency on TNFa NF-kB signaling – cell-based, revised, SAR follow-up (AID 2337); format: functional
Tumor necrosis factor, sequence (P01375 whole entry, the tested form may be a part): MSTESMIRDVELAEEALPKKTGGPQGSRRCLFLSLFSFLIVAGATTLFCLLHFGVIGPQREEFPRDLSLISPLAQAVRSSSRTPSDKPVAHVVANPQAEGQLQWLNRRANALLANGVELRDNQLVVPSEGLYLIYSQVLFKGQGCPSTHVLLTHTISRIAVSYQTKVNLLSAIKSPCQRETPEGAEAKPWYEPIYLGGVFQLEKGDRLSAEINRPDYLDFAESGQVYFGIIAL

[6] = target: T3, Nucleotide-binding oligomerization domain-containing protein 1 (Homo sapiens, UniProt Q9Y239); assay: blockers of NOD1 pathway activity – revised, SAR follow-up (AID 2333); format: functional
T3 sequence (Q9Y239 whole entry): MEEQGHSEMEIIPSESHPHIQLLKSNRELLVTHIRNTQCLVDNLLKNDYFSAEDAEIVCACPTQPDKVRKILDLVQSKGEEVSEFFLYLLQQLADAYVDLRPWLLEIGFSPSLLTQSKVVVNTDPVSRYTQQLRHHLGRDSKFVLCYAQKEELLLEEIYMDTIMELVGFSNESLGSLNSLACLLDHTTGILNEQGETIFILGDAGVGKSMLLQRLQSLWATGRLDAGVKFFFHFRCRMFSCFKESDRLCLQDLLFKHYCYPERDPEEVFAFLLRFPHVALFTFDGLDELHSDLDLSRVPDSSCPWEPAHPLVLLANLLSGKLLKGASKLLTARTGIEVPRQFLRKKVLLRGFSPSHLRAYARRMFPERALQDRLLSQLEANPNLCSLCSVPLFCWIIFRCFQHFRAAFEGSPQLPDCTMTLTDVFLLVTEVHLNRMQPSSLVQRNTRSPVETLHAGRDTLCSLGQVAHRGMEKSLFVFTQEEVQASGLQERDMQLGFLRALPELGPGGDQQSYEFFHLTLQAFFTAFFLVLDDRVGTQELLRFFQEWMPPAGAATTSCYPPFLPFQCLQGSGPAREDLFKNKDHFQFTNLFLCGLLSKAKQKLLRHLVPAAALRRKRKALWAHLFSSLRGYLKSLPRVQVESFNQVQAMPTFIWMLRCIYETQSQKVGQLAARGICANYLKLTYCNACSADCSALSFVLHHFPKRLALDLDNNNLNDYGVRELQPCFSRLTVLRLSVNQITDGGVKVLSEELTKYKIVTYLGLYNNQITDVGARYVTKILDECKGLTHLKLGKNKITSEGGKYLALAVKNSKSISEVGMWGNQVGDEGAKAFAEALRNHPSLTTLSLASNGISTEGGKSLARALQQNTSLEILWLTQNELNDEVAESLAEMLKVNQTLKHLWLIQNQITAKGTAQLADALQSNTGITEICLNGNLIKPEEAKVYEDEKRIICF

[7] = target: T4, Nucleotide-binding oligomerization domain-containing protein 2 (Homo sapiens, UniProt Q9HC29); assay: PubChem AID 2334; format: functional
T4 sequence (Q9HC29 whole entry, the tested form may be a part): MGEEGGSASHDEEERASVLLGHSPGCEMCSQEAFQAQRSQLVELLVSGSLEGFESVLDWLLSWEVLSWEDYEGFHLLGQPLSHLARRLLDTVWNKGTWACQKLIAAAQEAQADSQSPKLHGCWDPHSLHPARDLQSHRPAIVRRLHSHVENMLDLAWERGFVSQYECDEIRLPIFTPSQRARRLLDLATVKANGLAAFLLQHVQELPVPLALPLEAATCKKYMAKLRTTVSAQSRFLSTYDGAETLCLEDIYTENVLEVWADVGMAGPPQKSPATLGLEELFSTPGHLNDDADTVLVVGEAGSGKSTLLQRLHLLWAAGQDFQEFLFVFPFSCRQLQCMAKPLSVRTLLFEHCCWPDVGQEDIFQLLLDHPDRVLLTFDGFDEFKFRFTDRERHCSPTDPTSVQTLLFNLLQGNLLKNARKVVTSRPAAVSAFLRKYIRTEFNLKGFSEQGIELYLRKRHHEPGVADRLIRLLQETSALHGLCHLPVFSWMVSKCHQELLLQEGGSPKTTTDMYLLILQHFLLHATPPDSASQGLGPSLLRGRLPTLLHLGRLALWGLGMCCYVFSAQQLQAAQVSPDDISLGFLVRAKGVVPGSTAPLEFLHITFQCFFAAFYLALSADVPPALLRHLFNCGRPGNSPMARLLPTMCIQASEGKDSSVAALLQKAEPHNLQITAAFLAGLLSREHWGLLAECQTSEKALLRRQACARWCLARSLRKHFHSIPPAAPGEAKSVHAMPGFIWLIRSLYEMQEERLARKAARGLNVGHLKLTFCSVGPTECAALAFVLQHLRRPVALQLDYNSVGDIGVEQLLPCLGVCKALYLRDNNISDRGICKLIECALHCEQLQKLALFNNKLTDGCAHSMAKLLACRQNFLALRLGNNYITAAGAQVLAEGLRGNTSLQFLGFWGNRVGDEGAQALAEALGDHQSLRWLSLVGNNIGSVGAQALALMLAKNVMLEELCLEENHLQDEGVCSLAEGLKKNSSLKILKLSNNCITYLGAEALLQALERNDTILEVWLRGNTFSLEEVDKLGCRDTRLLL

HEK293 [8] = assay: cells; conditions: Homo sapiens
CAAX prenyl protease 2 [9] = target: T5, CAAX prenyl protease 2 (Saccharomyces cerevisiae S288c, UniProt Q03530); format: biochemical
T5 sequence (Q03530 whole entry): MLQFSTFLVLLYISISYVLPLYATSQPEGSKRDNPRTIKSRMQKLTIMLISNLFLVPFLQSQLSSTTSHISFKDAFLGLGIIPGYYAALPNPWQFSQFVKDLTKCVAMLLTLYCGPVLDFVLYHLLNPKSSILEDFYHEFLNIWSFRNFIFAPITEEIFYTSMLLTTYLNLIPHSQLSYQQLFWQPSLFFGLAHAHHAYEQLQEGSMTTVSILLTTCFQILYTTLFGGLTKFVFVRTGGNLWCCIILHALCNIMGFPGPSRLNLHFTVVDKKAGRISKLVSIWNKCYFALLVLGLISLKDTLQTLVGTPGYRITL

[10] = target: Intestinal-type alkaline phosphatase (Homo sapiens, UniProt P09923); assay: human intestinal alkaline phosphatase activators, dose response, biochemical, luminescence, uHTS hits (AID 463120); format: functional
Intestinal-type alkaline phosphatase, sequence (P09923 whole entry): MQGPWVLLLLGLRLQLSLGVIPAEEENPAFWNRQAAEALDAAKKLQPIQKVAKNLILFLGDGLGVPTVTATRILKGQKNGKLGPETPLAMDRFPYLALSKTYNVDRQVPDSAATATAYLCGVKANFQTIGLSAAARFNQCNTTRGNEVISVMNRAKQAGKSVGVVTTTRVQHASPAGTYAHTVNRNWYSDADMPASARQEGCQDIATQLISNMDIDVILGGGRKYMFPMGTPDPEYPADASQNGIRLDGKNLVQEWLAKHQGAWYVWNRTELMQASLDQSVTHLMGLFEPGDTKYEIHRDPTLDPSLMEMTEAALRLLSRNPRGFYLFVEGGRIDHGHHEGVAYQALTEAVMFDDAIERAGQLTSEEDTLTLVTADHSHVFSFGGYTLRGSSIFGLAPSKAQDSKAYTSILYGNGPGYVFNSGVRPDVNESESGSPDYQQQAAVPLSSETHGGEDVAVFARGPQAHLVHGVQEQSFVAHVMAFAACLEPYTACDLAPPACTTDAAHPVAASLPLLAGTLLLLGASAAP

Nonstructural protein 1 = Nonstructural protein 1 (Influenza A virus, UniProt Q194T2); format: functional, Influenza A virus (A/California/07/2009(H1N1))
Nonstructural protein 1, sequence (Q194T2 whole entry): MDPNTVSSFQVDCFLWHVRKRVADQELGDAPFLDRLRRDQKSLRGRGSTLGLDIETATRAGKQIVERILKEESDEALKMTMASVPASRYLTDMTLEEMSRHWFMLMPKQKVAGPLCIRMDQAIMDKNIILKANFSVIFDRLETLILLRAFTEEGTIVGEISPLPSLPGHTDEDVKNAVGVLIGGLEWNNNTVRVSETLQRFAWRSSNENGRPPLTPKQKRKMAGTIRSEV

Vero = assay: cells; format: functional; conditions: Chlorocebus sabaeus
HeLa = assay: ATP-based viability loss in HeLa cells – cell-based, CellTiter-Glo luminescence, cherry-pick samples, cytotoxicity control for MITF activator project, dose response (AID 540259); format: functional; conditions: Homo sapiens
[11] = microbe, parasite or virus in culture; format: functional; conditions: Mycobacterium tuberculosis
CAAX prenyl protease 2 [12] = target: T6, CAAX prenyl protease 2 (Homo sapiens, UniProt Q9Y256); assay: inhibition of Ras-converting CAAX protease Rce1 – biochemical, yeast membranes, quenched-peptide fluorescence, cherry-pick, dose response (AID 588849)
T6 sequence (Q9Y256 whole entry): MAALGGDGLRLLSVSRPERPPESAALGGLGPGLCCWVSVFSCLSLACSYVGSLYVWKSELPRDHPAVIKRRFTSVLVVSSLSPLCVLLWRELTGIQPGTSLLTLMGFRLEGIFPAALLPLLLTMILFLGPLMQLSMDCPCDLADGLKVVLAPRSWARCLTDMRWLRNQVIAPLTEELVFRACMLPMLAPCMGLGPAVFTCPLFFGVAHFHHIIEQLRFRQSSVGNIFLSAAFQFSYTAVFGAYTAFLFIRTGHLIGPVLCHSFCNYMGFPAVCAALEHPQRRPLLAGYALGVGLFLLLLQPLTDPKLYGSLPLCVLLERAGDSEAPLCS

HEK293 [13] = assay: inhibition of NOD1-driven NF-kB reporter – cell-based, luminescence, uHTS, primary screen (AID 1578); format: functional; conditions: Homo sapiens
INS1 = assay: INS-1E survival protection against cytokine death – cell-based, luminescence, retest, dose response (AID 449756); format: functional; conditions: Rattus norvegicus;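 also: cell death triggered by IL-1 beta plus TNF-alpha plus IFN-gamma mixture; protective hits raise ATP signal compared with cytokine alone wells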
HEK293 [14] = assay: cells; format: functional, cell-based; conditions: Homo sapiens
[15] = target: T4, Nucleotide-binding oligomerization domain-containing protein 2; assay: inhibition of NOD2-driven NF-kB reporter – cell-based, luminescence, uHTS, HEK293 (AID 1566); format: functional
HEK293 [16] = assay: cells; format: functional, cell-based; conditions: Homo sapiens; remark: listed apart in the source
[17] = reduction of Shn3 3'UTR-driven luciferase in osteoblasts – cell-based, Clone20 osteoblasts, firefly luciferase, cherry-picked, dose response (AID 624132); format: functional;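 also: firefly luciferase luminescence from reporter carrying the Shn3 3'UTR in osteoblasts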
[18] = non-specific 3'UTR reporter inhibition in Clone20-Shn3RL – cell-based, Renilla luciferase, cherry-picked, counter-screen for Shn3 inhibitor project, dose response (AID 624133); format: functional
HEK293 [19] = assay: cells; format: functional, cell-based; conditions: Homo sapiens; remark: listed apart in the source
HEK293 [20] = assay: NOD2 signaling inhibitors in MDP-stimulated cells, cell-based, uHTS, luminescence (AID 2001); format: functional; conditions: Homo sapiens
Trypsin = Trypsin (Sus scrofa, UniProt P00761); assay: trypsin protease activity blockade – biochemical, quenched peptide fluorescence, cherry-pick, selectivity assay for Rce1 protease inhibitor project, dose response (AID 488789)
Trypsin, sequence (P00761 whole entry): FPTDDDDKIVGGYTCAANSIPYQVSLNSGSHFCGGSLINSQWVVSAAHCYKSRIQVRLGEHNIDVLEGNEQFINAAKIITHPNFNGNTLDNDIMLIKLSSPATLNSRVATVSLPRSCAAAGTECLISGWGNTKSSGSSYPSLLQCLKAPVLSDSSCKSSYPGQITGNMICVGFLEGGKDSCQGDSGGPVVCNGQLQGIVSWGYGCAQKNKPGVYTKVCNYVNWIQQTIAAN

## O=C(Nc1ccc([N+](=O)[O-])cc1)c1ccccc1
[1]
  AC50: 40.2 µM (active)
Protein skinhead-1
  IC50: > 100 µM (inactive)

## CCc1ccc(-n2c(SCc3cc(=O)n4cc(Br)ccc4n3)nc3nncc-3c2O)cc1
[2]
  EC50: > 79.4 µM (not active)
[3]
  EC50: > 79.4 µM (inactive)
[4]
  EC50: 14.4 µM (not active)
[5]
  CC50: 17 µM (active)

## CC(=O)N1CCc2cc(S(=O)(=O)N3CCN(c4ccc(C#N)cc4)CC3)ccc21
Tumor necrosis factor
  IC50: 8.79 µM (active)
[6]
  IC50: 5.87 µM (active)
[7]
  IC50: 9.24 µM (active)
HEK293 [8]
  IC50: > 20 µM (inactive)

## CCCOc1ccc(-c2nc3c(c(=O)[nH]c(=O)n3Cc3ccccc3)n2CCO)cc1OCC
CAAX prenyl protease 2 [9]
  AC50: 14.5 µM (active)

## CCC(=O)N1CCc2cc(S(=O)(=O)N3CCN(c4ccc(Cl)cc4)CC3)ccc21
Tumor necrosis factor
  IC50: > 20 µM (inactive)
[6]
  IC50: > 20 µM (inactive)
[7]
  IC50: > 20 µM (inactive)
HEK293 [8]
  IC50: > 20 µM (inactive)

## O=C(NCCCN1CCOCC1)C(=O)N/N=C/c1ccccc1O
[10]
  EC50: 19.2 µM (active)
Nonstructural protein 1
  IC50: 11.2 µM (active)

## O=C(Nc1ccccc1N1CCN(C(=O)c2ccccc2)CC1)c1ccc([N+](=O)[O-])o1
Vero
  CC50: 21.6 µM (active)
[1]
  AC50: 11.4 µM (active)

## CC(C)c1ccc2nc(N)sc2c1
HeLa
  AC50: 54.4 µM (active)
[11]
  CC50: > 40 µM (active)

## Cc1nn(Cc2ccccc2Cl)c(C)c1C(=O)NCCN1C(=O)S/C(=C\c2ccccc2)C1=O
[2]
  EC50: > 79.4 µM (not active)
[3]
  EC50: > 79.4 µM (inactive)
[4]
  EC50: > 79.4 µM (not active)

## CCn1nnnc1SCC(=O)Nc1nc(C)c(C)s1
CAAX prenyl protease 2 [12]
  AC50: 9.77 µM (active)

## CCOC(=O)c1c(C)[nH]c(C)c1C(=O)CSc1nc2ccccc2c(=O)n1-c1ccc(CC)cc1
HEK293 [13]
  EC50: 6.9 µM (active)
INS1
  AC50: 5.33 µM (active)
Tumor necrosis factor
  IC50: 11.1 µM (active)
[6]
  IC50: 15.2 µM (active)
HEK293 [14]
  IC50: > 20 µM (inactive)
[15]
  EC50: 5.86 µM (active)
HEK293 [16]
  IC50: 13.4 µM (active)
[7]
  IC50: 12 µM (active)
[17]
  AC50: 5.36 µM (active)
[18]
  AC50: 6.48 µM (active)
HEK293 [19]
  IC50: > 20 µM (inactive)
HEK293 [20]
  IC50: 7.12 µM (active)
HEK293 [8]
  IC50: > 20 µM (inactive)

## CC(C)C(=O)Nc1c2c(nc3ccccc13)N(C)CC2
CAAX prenyl protease 2 [12]
  AC50: 24 µM (active)
Trypsin
  AC50: 12.8 µM (active)
CAAX prenyl protease 2 [9]
  AC50: 36.2 µM (active)
